We go through eight compounds from ChEMBL document CHEMBL1139741, “Synthesis of 1,2,4-trioxepanes via application of thiol-olefin co-oxygenation methodology” (Bioorg Med Chem Lett, 2006).

What is called IC50 is the concentration needed to halve the response being measured. Low readings indicate inhibition by little substance, high ones a need for much substance.

The structures appear in SMILES notation.

The test deals with Plasmodium falciparum. Nature of the test: Antimalarial activity against Plasmodium falciparum 3D7. Type of test: functional, organism-based.
In turn, `CC1(CS(=O)(=O)c2ccc(Cl)cc2)COC2(CCCC2)OO1` (stereo not drawn) returned an IC50 of 99.8 nM.
`CC1(CS(=O)(=O)c2ccc(Cl)cc2)COC2(CCCCC2)OO1` (stereo not drawn) returned an IC50 of 137 nM.
The figure for `CC1(CS(=O)(=O)c2ccc(Cl)cc2)CCOC(=C2C3CC4CC(C3)CC2C4)OO1` (stereo not drawn) is > 1000 nM; for `CC1(CS(=O)(=O)c2ccc(Cl)cc2)CCOC2(CCCCC2)OO1` (stereo not drawn) it is > 1000 nM.
The figure for `CC1(CS(=O)(=O)c2ccc(Cl)cc2)COC(=C2C3CC4CC(C3)CC2C4)OO1` (stereo not drawn) is 189 nM; for `CC1(CS(=O)(=O)c2ccc(Cl)cc2)CCOC2(CCCC2)OO1` (stereo not drawn) it is > 1000 nM; for `CC1(CSc2ccc(Cl)cc2)COC2(CCCC2)OO1` (stereo not drawn) it is 110 nM.
The figure for `COC(=O)/C=C/C1(C)CCOC(=C2C3CC4CC(C3)CC2C4)OO1` (stereo not drawn) is > 1000 nM.
